# Results taken from ChEMBL document CHEMBL1275533, “In vitro antibacterial activity of vertilmicin and its susceptibility to modifications by the recombinant AAC6'-APH2'' enzyme” (2008).
# Active and inactive are the calls of the source. The rule behind the calls is not given here.
# What was measured:
# [1] = system: Klebsiella pneumoniae; experiment: Antibacterial activity against gentamicin-resistant Klebsiella pneumoniae clinical isolate after 18 hrs by agar dilution method; type: functional
# [2] = system: Morganella morganii; experiment: Antibacterial activity against gentamicin-resistant Morganella morganii clinical isolate assessed as susceptible isolates after 18 hrs by agar dilution method; type: functional
# [3] = system: Citrobacter koseri; experiment: Antibacterial activity against non-gentamicin-resistant Citrobacter diversus clinical isolate assessed as susceptible isolates after 18 hrs by agar dilution method; type: functional
# [4] = system: Citrobacter freundii; experiment: Antibacterial activity against non-gentamicin-resistant Citrobacter freundii clinical isolate assessed as susceptible isolates after 18 hrs by agar dilution method; type: functional
# [5] = system: Escherichia coli BL21(DE3); experiment: Acetylation activity of AAC(6')-APH(2'') in Escherichia coli BL21(DE3) assessed as production of free pyridine-4-thiolate
# [6] = system: Serratia marcescens; experiment: Antibacterial activity against gentamicin-resistant Serratia marcescens clinical isolate after 18 hrs by agar dilution method; type: functional
# [7] = system: Klebsiella aerogenes; experiment: Antibacterial activity against gentamicin-resistant Enterobacter aerogenes clinical isolate after 18 hrs by agar dilution method; type: functional
# [8] = system: Staphylococcus epidermidis; experiment: Antibacterial activity against gentamicin-resistant Staphylococcus epidermidis clinical isolate assessed as susceptible isolates after 18 hrs by agar dilution method; type: functional
# [9] = system: Pseudomonas sp.; experiment: Antibacterial activity against gentamicin-resistant Pseudomonas spp. clinical isolate after 18 hrs by agar dilution method; type: functional
# [10] = system: Citrobacter freundii; experiment: Antibacterial activity against non-gentamicin-resistant Citrobacter freundii clinical isolate after 18 hrs by agar dilution method; type: functional
# [11] = system: Pseudomonas aeruginosa; experiment: Antibacterial activity against non-gentamicin-resistant Pseudomonas aeruginosa clinical isolate assessed as susceptible isolates after 18 hrs by agar dilution method; type: functional
# [12] = system: Enterobacter cloacae; experiment: Antibacterial activity against non-gentamicin-resistant Enterobacter cloacae clinical isolate assessed as susceptible isolates after 18 hrs by agar dilution method; type: functional
# [13] = system: Citrobacter freundii; experiment: Antibacterial activity against gentamicin-resistant Citrobacter freundii clinical isolate assessed as susceptible isolates after 18 hrs by agar dilution method; type: functional
# [14] = system: Klebsiella aerogenes; experiment: Antibacterial activity against gentamicin-resistant Enterobacter aerogenes clinical isolate assessed as susceptible isolates after 18 hrs by agar dilution method; type: functional
# [15] = system: Citrobacter koseri; experiment: Antibacterial activity against gentamicin-resistant Citrobacter diversus clinical isolate after 18 hrs by agar dilution method; type: functional
# [16] = system: Haemophilus influenzae; experiment: Antibacterial activity against non-gentamicin-resistant Haemophilus influenzae clinical isolate assessed as susceptible isolates after 18 hrs by agar dilution method; type: functional, organism-based
# [17] = system: Providencia rettgeri; experiment: Antibacterial activity against non-gentamicin-resistant Proteus rettgeri clinical isolate assessed as susceptible isolates after 18 hrs by agar dilution method; type: functional
# [18] = system: Escherichia coli; experiment: Antibacterial activity against non-gentamicin-resistant Escherichia coli clinical isolate assessed as susceptible isolates after 18 hrs by agar dilution method; type: functional
# [19] = system: Pseudomonas aeruginosa; experiment: Antibacterial activity against non-gentamicin-resistant Pseudomonas aeruginosa clinical isolate after 18 hrs by agar dilution method; type: functional
# [20] = system: Citrobacter koseri; experiment: Antibacterial activity against non-gentamicin-resistant Citrobacter diversus clinical isolate after 18 hrs by agar dilution method; type: functional
# [21] = system: Klebsiella aerogenes; experiment: Antibacterial activity against non-gentamicin-resistant Enterobacter aerogenes clinical isolate assessed as susceptible isolates after 18 hrs by agar dilution method; type: functional
# [22] = system: Enterococcus faecalis; experiment: Antibacterial activity against gentamicin-resistant Enterococcus faecalis clinical isolate assessed as susceptible isolates after 18 hrs by agar dilution method; type: functional, organism-based
# [23] = system: Klebsiella aerogenes; experiment: Antibacterial activity against non-gentamicin-resistant Enterobacter aerogenes clinical isolate after 18 hrs by agar dilution method; type: functional
# [24] = system: Staphylococcus aureus; experiment: Antibacterial activity against non-gentamicin-resistant Staphylococcus aureus clinical isolate assessed as susceptible isolates after 18 hrs by agar dilution method; type: functional
# [25] = system: Morganella morganii; experiment: Antibacterial activity against non-gentamicin-resistant Morganella morganii clinical isolate after 18 hrs by agar dilution method; type: functional
# [26] = system: Enterobacter cloacae; experiment: Antibacterial activity against non-gentamicin-resistant Enterobacter cloacae clinical isolate after 18 hrs by agar dilution method; type: functional
# [27] = system: Serratia marcescens; experiment: Antibacterial activity against non-gentamicin-resistant Serratia marcescens clinical isolate assessed as susceptible isolates after 18 hrs by agar dilution method; type: functional
# [28] = system: Klebsiella pneumoniae; experiment: Antibacterial activity against non-gentamicin-resistant Klebsiella pneumoniae clinical isolate after 18 hrs by agar dilution method; type: functional
# [29] = system: Morganella morganii; experiment: Antibacterial activity against gentamicin-resistant Morganella morganii clinical isolate after 18 hrs by agar dilution method; type: functional
# [30] = system: Klebsiella pneumoniae; experiment: Antibacterial activity against gentamicin-resistant Klebsiella pneumoniae clinical isolate assessed as susceptible isolates after 18 hrs by agar dilution method; type: functional
# [31] = system: Enterobacter cloacae; experiment: Antibacterial activity against gentamicin-resistant Enterobacter cloacae clinical isolate after 18 hrs by agar dilution method; type: functional
# [32] = system: Escherichia coli; experiment: Antibacterial activity against gentamicin-resistant Escherichia coli clinical isolate after 18 hrs by agar dilution method; type: functional
# [33] = system: Staphylococcus epidermidis; experiment: Antibacterial activity against non-gentamicin-resistant Staphylococcus epidermidis clinical isolate after 18 hrs by agar dilution method; type: functional
# [34] = system: Acinetobacter calcoaceticus; experiment: Antibacterial activity against gentamicin-resistant Acinetobacter calcoaceticus clinical isolate assessed as susceptible isolates after 18 hrs by agar dilution method; type: functional
# [35] = system: Haemophilus influenzae; experiment: Antibacterial activity against non-gentamicin-resistant Haemophilus influenzae clinical isolate after 18 hrs by agar dilution method; type: functional
# [36] = system: Serratia marcescens; experiment: Antibacterial activity against gentamicin-resistant Serratia marcescens clinical isolate assessed as susceptible isolates after 18 hrs by agar dilution method; type: functional
# [37] = system: Pseudomonas sp.; experiment: Antibacterial activity against gentamicin-resistant Pseudomonas spp. clinical isolate assessed as susceptible isolates after 18 hrs by agar dilution method; type: functional
# [38] = system: Staphylococcus aureus; experiment: Antibacterial activity against non-gentamicin-resistant Staphylococcus aureus clinical isolate after 18 hrs by agar dilution method; type: functional
# [39] = system: Staphylococcus aureus; experiment: Antibacterial activity against gentamicin-resistant Staphylococcus aureus clinical isolate after 18 hrs by agar dilution method; type: functional
# [40] = system: Staphylococcus epidermidis; experiment: Antibacterial activity against non-gentamicin-resistant Staphylococcus epidermidis clinical isolate assessed as susceptible isolates after 18 hrs by agar dilution method; type: functional
# [41] = system: Escherichia coli; experiment: Antibacterial activity against gentamicin-resistant Escherichia coli clinical isolate assessed as susceptible isolates after 18 hrs by agar dilution method; type: functional
# [42] = system: Providencia rettgeri; experiment: Antibacterial activity against gentamicin-resistant Proteus rettgeri clinical isolate after 18 hrs by agar dilution method; type: functional
# [43] = system: Morganella morganii; experiment: Antibacterial activity against non-gentamicin-resistant Morganella morganii clinical isolate assessed as susceptible isolates after 18 hrs by agar dilution method; type: functional
# [44] = system: Proteus mirabilis; experiment: Antibacterial activity against gentamicin-resistant Proteus mirabilis clinical isolate after 18 hrs by agar dilution method; type: functional
# [45] = system: Haemophilus parainfluenzae; experiment: Antibacterial activity against non-gentamicin-resistant Haemophilus parainfluenzae clinical isolate assessed as susceptible isolates after 18 hrs by agar dilution method; type: functional, organism-based
# [46] = system: Citrobacter koseri; experiment: Antibacterial activity against gentamicin-resistant Citrobacter diversus clinical isolate assessed as susceptible isolates after 18 hrs by agar dilution method; type: functional
# [47] = system: Providencia rettgeri; experiment: Antibacterial activity against gentamicin-resistant Proteus rettgeri clinical isolate assessed as susceptible isolates after 18 hrs by agar dilution method; type: functional
structure (smiles),measurement,setting,value
CCN[C@@H]1C[C@H](N)[C@@H](O[C@@H]2OC(C(C)N)=CC[C@@H]2N)[C@H](O)[C@H]1O[C@H]1OC[C@](C)(O)[C@H](NC)[C@H]1O (some centres undefined) [VERTILMICIN],MIC50,[1],16 mg/L
same,MIC90,[1],> 128 mg/L
same,Activity,[2],50%
same,Activity,[3],100%
same,Activity,[4],90%
same,Km,[5],469 µM
same,MIC50,[6],> 128 mg/L
same,MIC90,[6],> 128 mg/L
same,MIC50,[7],16 mg/L
same,MIC90,[7],> 128 mg/L
same,Activity,[8],88.5%
same,MIC50,[9],128 mg/L
same,MIC90,[9],> 128 mg/L
same,MIC50,[10],0.5 mg/L
same,MIC90,[10],8 mg/L
same,Activity,[11],78.7%
same,Activity,[12],100%
same,Activity,[13],52.6%
same,Activity,[14],30%
same,MIC50,[15],32 mg/L
same,MIC90,[15],> 128 mg/L
same,Activity,[16],inactive
same,Activity,[17],92.3%
same,Activity,[18],100%
same,MIC50,[19],8 mg/L
same,MIC90,[19],32 mg/L
same,MIC,[20],0.25 mg/L
same,MIC50,[20],0.25 mg/L
same,MIC90,[20],0.5 mg/L
same,Activity,[21],98.1%
same,Activity,[22],inactive
same,MIC50,[23],0.5 mg/L
same,MIC90,[23],2 mg/L
same,Activity,[24],94.8%
same,MIC50,[25],1 mg/L
same,MIC90,[25],2 mg/L
same,MIC50,[26],0.25 mg/L
same,MIC90,[26],0.5 mg/L
same,Activity,[27],100%
same,MIC50,[28],0.25 mg/L
same,MIC90,[28],0.5 mg/L
same,MIC50,[29],8 mg/L
same,MIC90,[29],32 mg/L
same,Activity,[30],32.1%
same,MIC50,[31],32 mg/L
same,MIC90,[31],> 128 mg/L
same,MIC50,[32],8 mg/L
same,MIC90,[32],64 mg/L
same,MIC50,[33],0.125 mg/L
same,MIC90,[33],1 mg/L
same,Activity,[34],24%
same,MIC50,[35],1 mg/L
same,MIC90,[35],1 mg/L
same,Activity,[36],10%
same,Activity,[37],7.7%
same,MIC50,[38],0.125 mg/L
same,MIC90,[38],2 mg/L
same,MIC50,[39],4 mg/L
same,MIC90,[39],16 mg/L
same,Activity,[40],100%
same,Activity,[41],68.4%
same,MIC50,[42],8 mg/L
same,MIC90,[42],64 mg/L
same,Activity,[43],100%
same,MIC50,[44],32 mg/L
same,MIC90,[44],> 128 mg/L
same,Activity,[45],inactive
same,Activity,[46],7.1%
same,Activity,[47],53.3%
CN[C@@H]1[C@@H](O)[C@@H](O[C@@H]2[C@@H](O)[C@H](O[C@@H]3OC(C(C)N)=CC[C@@H]3N)[C@@H](N)C[C@H]2N)OC[C@]1(C)O (some centres undefined) [VERDAMICIN],MIC50,[1],128 mg/L
same,MIC90,[1],> 128 mg/L
same,Activity,[2],8.3%
same,Activity,[3],100%
same,Activity,[4],72.2%
same,Km,[5],656 µM
same,MIC50,[6],> 128 mg/L
same,MIC90,[6],> 128 mg/L
same,MIC50,[7],> 128 mg/L
same,MIC90,[7],> 128 mg/L
same,Activity,[8],50%
same,MIC50,[9],128 mg/L
same,MIC90,[9],> 128 mg/L
same,MIC50,[10],0.5 mg/L
same,MIC90,[10],64 mg/L
same,Activity,[11],86.9%
same,Activity,[12],98.2%
same,Activity,[13],26.3%
same,Activity,[14],0%
same,MIC50,[15],> 128 mg/L
same,MIC90,[15],> 128 mg/L
same,Activity,[16],inactive
same,Activity,[17],100%
same,Activity,[18],98.1%
same,MIC50,[19],8 mg/L
same,MIC90,[19],16 mg/L
same,MIC,[20],0.25 mg/L
same,MIC50,[20],0.25 mg/L
same,MIC90,[20],0.5 mg/L
same,Activity,[21],98.1%
same,Activity,[22],inactive
same,MIC50,[23],0.5 mg/L
same,MIC90,[23],1 mg/L
same,Activity,[24],94.8%
same,MIC50,[25],1 mg/L
same,MIC90,[25],2 mg/L
same,MIC,[26],0.25 mg/L
same,MIC50,[26],0.25 mg/L
same,MIC90,[26],0.5 mg/L
same,Activity,[27],96.3%
same,MIC50,[28],0.25 mg/L
same,MIC90,[28],0.5 mg/L
same,MIC50,[29],64 mg/L
same,MIC90,[29],128 mg/L
same,Activity,[30],10.7%
same,MIC50,[31],128 mg/L
same,MIC90,[31],> 128 mg/L
same,MIC50,[32],32 mg/L
same,MIC90,[32],128 mg/L
same,MIC50,[33],0.5 mg/L
same,MIC90,[33],32 mg/L
same,Activity,[34],16%
same,MIC50,[35],1 mg/L
same,MIC90,[35],1 mg/L
same,Activity,[36],10%
same,Activity,[37],3.8%
same,MIC50,[38],0.125 mg/L
same,MIC90,[38],8 mg/L
same,MIC50,[39],32 mg/L
same,MIC90,[39],> 128 mg/L
same,Activity,[40],75%
same,Activity,[41],3.5%
same,MIC50,[42],32 mg/L
same,MIC90,[42],128 mg/L
same,Activity,[43],100%
same,MIC50,[44],> 128 mg/L
same,MIC90,[44],> 128 mg/L
same,Activity,[45],inactive
same,Activity,[46],0%
same,Activity,[47],20%
